{"source": "patent EP0368576B1", "about": "“Insecticide comprising a suspension of microcapsules containing chlorpyrifos” (priority 1988, dated 1990)", "key": {"carp": {"tested_on": "carp", "experiment": "Acute toxicity to fish", "assay_type": "in vivo", "description": "(§1) Tests of the acute oral toxicity and the acute dermal toxicity of the encapsulated insecticide produced in Example 2 and the acute toxicity thereof to fish were carried out as follows.\n(§2) A group of 5 ICR male mice (5 weeks old) and a group of 5 Wister male rats (8 weeks old) were used for the acute oral toxicity test and the acute dermal toxicity test, respectively. Tests were carried out to obtain LD₅₀ values in accordance with the toxicity guidance of agricultural chemicals (Agricultural production No. 59 - 4200) (Notification of Director-General, Agricultural Production Bureau, 59 Nohsan No. 4200 dated January 28, 1985) issued by the Agricultural and Fisheries Ministry. The test for acute toxity to fish was carried out using groups of carp, each group consisting of 10 carp, in accordance with the Circular Notice No. 2735 issued by Director of the Agricultural Administration Bureau in the Agricultural and Fisheries Ministry to obtain the TLm of each group."}, "[1]": {"experiment": "Acute dermal toxicity test", "conditions": "Wistar, rat, in vivo, topical or ocular, Wister male rats (8 weeks old), read-out: Acute dermal toxicity LD₅₀", "description": "as §1, §2"}, "Acute oral toxicity test": {"experiment": "Acute oral toxicity test", "conditions": "mouse, in vivo, ICR male mice (5 weeks old), read-out: Acute oral toxicity LD₅₀", "description": "as §1, §2"}, "[2]": {"experiment": "Test of the release property in soil", "assay_type": "physicochemical", "conditions": "sand soil, 65 days; rate based on the original amount", "description": "7.5 g of the encapsulated insecticide produced in Example 2 was dispersed in 100 mℓ of water, and 1 mℓ of the dispersion was added to 30 g of soil (sand soil of Mt. Kannan) which had been put into a 100-mℓ beaker, and thoroughly mixed therewith.\nSeparately from this, 1500 mg of the chlorpyrifos was dissolved into 100 mℓ of acetone and 1 mℓ of the solution was added to 30 g of soil (same as above) and thoroughly mixed therewith.\nThe beaker was covered with aluminium foil, and water was sometimes sprayed on the soil to prevent the soil from drying. 65 days after, the amount of chlorpyrifos in the beaker was measured.\nIn order to measure the total amount of chlorpyrifos, 150 mℓ of acetone and 2 mℓ of concentrated hydrochloric acid was added to 30 g of the soil. The mixture was refluxed under heating in a water bath at 65°C for 1 hour, and after cooling filtered through No. 5C filter paper. The residue was further washed with 100 mℓ of acetone, and diluted so that the total volume was 250 mℓ to measure the amount of chlorpyrifos by high-speed liquid chromatography.\nThe amount of chlorpyrifos liberated was measured in the following manner. A mixture solvent of methanol and water (60/40) was added to 30 g of the soil. After the mixture was shaken for 10 minutes, the mixture was filtered through No. 5C filter paper. […]"}}, "data": [{"smiles": "CCOP(=S)(OCC)Oc1nc(Cl)c(Cl)cc1Cl", "note": "[Technical, 0,0-diethyl-0-3,5,6-trichloro-2-pyridyl-phosphorothioate]", "values": [{"measurement": "Toxicity to fish TLm (48 h)", "setting": "carp", "result": 0.13, "unit": "ppm"}, {"measurement": "LD50", "setting": "[1]", "result": 202, "unit": "mg/kg"}, {"measurement": "LD50", "setting": "Acute oral toxicity test", "result": 178, "unit": "mg/kg"}, {"measurement": "Amount of chlorpyrifos remaining in the soil: Total amount of chlorpyrifos", "setting": "[2]", "result": 41, "unit": "wt%"}]}]}
